| Compound | melting point |
| --- | --- |
| CCCc1nc2c(N)nc3cc(/C=C/c4cccnc4)ccc3c2n1CC(C)C (hydrate or solvate) [Example 446, (E)-1-(2-Methylpropyl)-2-propyl-7-[2-(pyridin-3-yl)vinyl]-1H-imidazo[4,5-c]quinolin-4-amine] | 190 to 192 °C |
| CCOCc1nc2c(N)nc3cc(-c4cccc(C(=O)N5CCOCC5)c4)ccc3c2n1CC1CCOCC1 (hydrate or solvate) [Example 477, {3-[4-Amino-2-ethoxymethyl-1-(tetrahydropyran-4-ylmethyl)-1H-imidazo[4,5-c]quinolin-7-yl]phenyl}morpholin-4-ylmethanone] | 125 to 128 °C |
| CCOCc1nc2c(N)nc3cc(-c4cccnc4)ccc3c2n1CC1CCOCC1 (hydrate or solvate) [Example 479, 2-Ethoxymethyl-7-(pyridin-3-yl)-1-(tetrahydropyran-4-ylmethyl)-1H-imidazo[4,5-c]quinolin-4-amine] | 116 to 121 °C |
| CCCCc1nc2c(N)nc3cc(-c4ccsc4)ccc3c2n1CC(C)C [Example 1, 2-Butyl-1-isobutyl-7-(thiophen-3-yl)-1H-imidazo[4,5-c]quinolin-4-amine] | 229 to 230 °C |
| CCCCc1nc2c(N)nc3cc(-c4ccccc4)ccc3c2n1CC(C)C [Example 2, 2-Butyl-1-isobutyl-7-phenyl-1H-imidazo[4,5-c]quinolin-4-amine] | > 250 °C |
| CCCCc1nc2c(N)nc3cc(-c4ccc(OC)cc4OC)ccc3c2n1CC(C)C [Example 3, 2-Butyl-7-(2,4-dimethoxyphenyl)-1-isobutyl-1H-imidazo[4,5-c]quinolin-4-amine] | 187 to 189 °C |
| CCCCc1nc2c(N)nc3cc(-c4ccc(C(C)(C)C)cc4)ccc3c2n1CC(C)C [Example 4, 2-Butyl-7-(4-tert-butylphenyl)-1-isobutyl-1H-imidazo[4,5-c]quinolin-4-amine] | 219 to 220 °C |
| CCCCc1nc2c(N)nc3cc(-c4ccc(OCCC)cc4)ccc3c2n1CC(C)C [Example 5, 2-Butyl-1-isobutyl-7-(4-propoxyphenyl)-1H-imidazo[4,5-c]quinolin-4-amine] | 194 to 197 °C |
| CCCCc1nc2c(N)nc3cc(-c4ccccc4OCCC)ccc3c2n1CC(C)C [Example 6, 2-Butyl-1-isobutyl-7-(2-propoxyphenyl)-1H-imidazo[4,5-c]quinolin-4-amine] | 174.5 to 176 °C |
| CCCCc1nc2c(N)nc3cc(/C=C/c4ccccc4)ccc3c2n1CC(C)C [Example 7, 2-Butyl-1-isobutyl-7-[(E)-2-phenylethenyl]-1H-imidazo[4,5-c]quinolin-4-amine] | 215 to 216 °C |
| CCCCc1nc2c(N)nc3cc(CCc4ccccc4)ccc3c2n1CC(C)C [Example 8, 2-Butyl-1-isobutyl-7-phenethyl-1H-imidazo[4,5-c]quinolin-4-amine] | 181 to 182 °C |
| CCOCc1nc2c(N)nc3cc(-c4ccsc4)ccc3c2n1CC(C)C [Example 9, 2-Ethoxymethyl-1-isobutyl-7-(thiophen-3-yl)-1H-imidazo[4,5-c]quinolin-4-amine] | 187 to 189 °C |
| CCCCc1nc2c(N)nc3cc(-c4ccccc4)ccc3c2n1CCCS(C)(=O)=O [Example 10, 2-Butyl-1-(3-methanesulfonylpropyl)-7-phenyl-1H-imidazo[4,5-c]quinolin-4-amine] | 214 to 216 °C |
| CC(C)Cn1cnc2c(N)nc3ccc(-c4ccc(C(C)(C)C)cc4)cc3c21 [Example 11, 8-(4-tert-Butylphenyl)-1-isobutyl-1H-imidazo[4,5-c]quinolin-4-amine] | > 250 °C |
| CC(C)Cn1cnc2c(N)nc3ccc(-c4ccsc4)cc3c21 [Example 12, 1-Isobutyl-8-(thiophen-3-yl)-1H-imidazo[4,5-c]quinolin-4-amine] | 235 to 236 °C |
| COc1ccc(-c2ccc3nc(N)c4ncn(CC(C)C)c4c3c2)c(OC)c1 [Example 13, 8-(2,4-Dimethoxyphenyl)-1-isobutyl-1H-imidazo[4,5-c]quinolin-4-amine] | 223 to 227 °C |
| CCc1nc2c(N)nc3ccc(-c4ccccc4)cc3c2n1CC(C)C [Example 16, 2-Ethyl-1-isobutyl-8-phenyl-1H-imidazo[4,5-c]quinolin-4-amine] | 233 to 235 °C |
| CCc1nc2c(N)nc3ccc(-c4cccnc4)cc3c2n1CC(C)C [Example 17, 2-Ethyl-1-isobutyl-8-(pyridin-3-yl)-1H-imidazo[4,5-c]quinolin-4-amine] | > 250 °C |
| CCCCn1c(COCC)nc2c(N)nc3ccc(-c4ccccc4)cc3c21 [Example 18, 1-Butyl-2-ethoxymethyl-8-phenyl-1H-imidazo[4,5-c]quinolin-4-amine] | 186 to 187 °C |
| CCCCn1c(COCC)nc2c(N)nc3ccc(-c4cccnc4)cc3c21 [Example 19, 1-Butyl-2-ethoxymethyl-8-(pyridin-3-yl)-1H-imidazo[4,5-c]quinolin-4-amine] | 220 to 222 °C |

| Compound | melting point |
| --- | --- |
| CCCOc1cccc(-c2ccc3c(c2)nc(N)c2nc(COCC)n(CC(C)C)c23)c1 [Example 106, 2-Ethoxymethyl-1-(2-methylpropyl)-7-(3-propoxyphenyl)-1H-imidazo[4,5-c]quinolin-4-amine] | 140 to 141 °C |
| CCCOc1ccc(-c2ccc3c(c2)nc(N)c2nc(COCC)n(CC(C)C)c23)cc1 [Example 107, 2-Ethoxymethyl-1-(2-methylpropyl)-7-(4-propoxyphenyl)-1H-imidazo[4,5-c]quinolin-4-amine] | 209 to 210 °C |
| CCOCc1nc2c(N)nc3cc(-c4ccccc4)ccc3c2n1CC(C)C [Example 108, 2-Ethoxymethyl-1-(2-methylpropyl)-7-phenyl-1H-imidazo[4,5-c]quinolin-4-amine] | 176.5 to 178 °C |
| CCCOc1ccccc1-c1ccc2c(c1)nc(N)c1nc(COCC)n(CC(C)C)c12 [Example 109, 2-Ethoxymethyl-1-(2-methylpropyl)-7-(2-propoxyphenyl)-1H-imidazo[4,5-c]quinolin-4-amine] | 168 to 169 °C |
| CCOCc1nc2c(N)nc3cc(-c4ccc(C#N)cc4)ccc3c2n1CC(C)C [Example 110, 4-(4-Amino-2-ethoxymethyl-1-(2-methylpropyl)-1H-imidazo[4,5-c]quinolin-7-yl)benzonitrile] | 211 to 212 °C |
| CCOCc1nc2c(N)nc3cc(-c4cccc(C#N)c4)ccc3c2n1CC(C)C [Example 111, 3-(4-Amino-2-ethoxymethyl-1-(2-methylpropyl)-1H-imidazo[4,5-c]quinolin-7-yl)benzonitrile] | 210 to 211 °C |
| CCOCc1nc2c(N)nc3cc(-c4cccnc4)ccc3c2n1CC(C)C [Example 113, 2-Ethoxymethyl-1-(2-methylpropyl)-7-(pyridin-3-yl)-1H-imidazo[4,5-c]quinolin-4-amine] | 179.5 to 181.5 °C |
| CCOCc1nc2c(N)nc3cc(-c4ccc(N(C)C)cc4)ccc3c2n1CC(C)C [Example 114, 7-(4-Dimethylaminophenyl)-2-ethoxymethyl-1-(2-methylpropyl)-1H-imidazo[4,5-c]quinolin-4-amine] | 214.5 to 215.5 °C |
| CCOCc1nc2c(N)nc3cc(-c4cncc(CO)c4)ccc3c2n1CC(C)C [Example 115, {5-[4-Amino-2-ethoxymethyl-1-(2-methylpropyl)-1H-imidazo[4,5-c]quinolin-7-yl]pyridin-3-yl}methanol] | 211 to 212 °C |
| CCOCc1nc2c(N)nc3cc(-c4ccncc4)ccc3c2n1CC(C)C [Example 116, 2-Ethoxymethyl-1-(2-methylpropyl)-(7-pyridin-4-yl)-1H-imidazo[4,5-c]quinolin-4-amine] | 211 to 213 °C |
| CCOCc1nc2c(N)nc3cc(CCc4ccc(C(F)(F)F)cc4)ccc3c2n1CC(C)C [Example 117, 2-Ethoxymethyl-1-(2-methylpropyl)-7-{2-[(trifluoromethyl)phenyl]ethyl}-1H-imidazo[4,5-c]quinolin-4-amine] | 175.5 to 178 °C |
| CCc1ccc(-c2ccc3nc(N)c4ncn(CC(C)C)c4c3c2)cc1 [Example 118, 8-(4-Ethylphenyl)-1-(2-methylpropyl)-1H-imidazo[4,5-c]quinolin-4-amine] | 238 to 240 °C |
| Cc1ccc(-c2ccc3nc(N)c4ncn(CC(C)C)c4c3c2)cc1C [Example 119, 8-(3,4-Dimethylphenyl)-1-(2-methylpropyl)-1H-imidazo[4,5-c]quinolin-4-amine] | 204 to 205 °C |
| CC(=O)c1cccc(-c2ccc3nc(N)c4ncn(CC(C)C)c4c3c2)c1 [Example 120, 1-{3-[4-Amino-1-(2-methylpropyl)-1H-imidazo[4,5-c]quinolin-8-yl]phenyl}ethanone] | 217 to 218 °C |
| CC(C)Cn1cnc2c(N)nc3ccc(-c4csc5ccccc45)cc3c21 [Example 121, 8-Benzo[b]thiophen-3-yl-1-(2-methylpropyl)-1H-imidazo[4,5-c]quinolin-4-amine] | 247 to 248 °C |
| CC(C)Cn1cnc2c(N)nc3ccc(C=Cc4ccccc4)cc3c21 [Example 122, 1-(2-Methylpropyl)-8-styryl-1H-imidazo[4,5-c]quinolin-4-amine] | 228 to 230 °C |
| CC(C)Cn1cnc2c(N)nc3ccc(CCc4ccccc4)cc3c21 [Example 123, 1-(2-Methylpropyl)-8-phenethyl-1H-imidazo[4,5-c]quinolin-4-amine] | 175 to 178 °C |
| Cc1nc2c(N)nc3cc(-c4ccccc4)ccc3c2n1CCCS(C)(=O)=O [Example 124, 2-Methyl-1-(3-methanesulfonylpropyl)-7-phenyl-1H-imidazo[4,5-c]quinolin-4-amine] | 203 to 205 °C |
| CCOCc1nc2c(N)nc3cc(-c4ccsc4)ccc3c2n1CC(C)(C)O [Example 125, 1-[4-Amino-2-ethoxymethyl-7-(thiophen-3-yl)-1H-imidazo[4,5-c]quinolin-1-yl]-2-methylpropan-2-ol] | 204 to 205 °C |
| CCOCc1nc2c(N)nc3cc(-c4cccnc4)ccc3c2n1CC(C)(C)O [Example 126, 1-[4-Amino-2-ethoxymethyl-7-(pyridin-3-yl)-1H-imidazo[4,5-c]quinolin-1-yl]-2-methylpropan-2-ol] | 197 to 199 °C |

— US7598382B2, “Aryl substituted imidazoquinolines” (Coley Pharmaceutical Group, Inc., priority 2002, dated 2009)
